Experimental data as given in paper PMC4912613, “A broad analysis of resistance development in the malaria parasite” (Nature Communications, 2016).
Where two headings read alike, the source gives them in different places.

Columns and labels:
[1] = tested on: P. falciparum 3D7, Dd2, Dd2Δexo; assay: In vitro evolution of compound-resistant lines (selection); assay type: cell-based, Plasmodium falciparum; details: for Time Length to Obtain Mutants: in vitro selection; for # of Resistant Strains Generated: resistant cultures out of three independent cultures; for EC50 fold shifts observed: selected parasites vs selection parent
In short: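 Resistance was selected in triplicate cultures. High-pressure: ~1–2 × 10^9 parasites at 3–10 × EC50, with intermittent or constant pressure. Step-wise: ~1 × 10^8 parasites, dose raised 5–10% to hold 50% growth reduction, until a reproducible >3× EC50 shift. Lines were cloned by limiting dilution; selection ended at 200 days.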

[2] = tested on: ATQ-R5 (cytb F267V, parent 3D7); assay: Cross-resistance EC50 assay, ATQ-R5; assay type: cell-based, Plasmodium falciparum; details: Plasmodium falciparum, 3D7; SYBR green 72 hour assay; asynchronized parasites; 96-well or 1536-well format; ATQ-R5
In short: (§1)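 Parasitized RBCs exposed to serial drug dilutions; growth read by ³H-hypoxanthine uptake over 48 h or SYBR Green I over 72 h at 37 °C. EC50s from triplicate runs; resistance judged as fold shift against the parent strain assayed the same way.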

[3] = tested on: CYTbQi (cytb G33A, parent Dd2); assay: Cross-resistance EC50 assay, CYTbQi; assay type: cell-based; details: Plasmodium falciparum; SYBR green 72 hour assay; synchronized parasites; 384-well format; strain CYTbQi (Dd2 parent)
In short: as §1

[4] = tested on: GNF156R (PfCARL L830V, S1076I and M81I, parent Dd2); assay: Cross-resistance EC50 assay, GNF156R; assay type: cell-based; details: Plasmodium falciparum, SYBR green 72 hour assay, asynchronized parasites, 96-well or 1536-well format
In short: as §1

PfCRT-Q352R (parent Dd2) = assay: Cross-resistance EC50 assay, PfCRT-Q352R; assay type: cell-based; details: Plasmodium falciparum, DD2, 72 h, read-out: PfCRT:Q352R (Dd2 Parent) Average EC50
In short: as §1

Dd2 = assay: Cross-resistance EC50 assay, Dd2 parent; assay type: cell-based, Plasmodium falciparum; details: Plasmodium falciparum, DD2, 72 h
[5] = read-out: Dd2 (PARENT) Average EC50
[6] = read-out: Dd2 (PARENT) EC50 (µM) Average EC50

`CC(C)(C)OC(=O)N1CCN(c2ccccc2NC(=O)c2cccc(C(F)(F)F)c2Oc2ccc(F)cc2)CC1` [MMV030666] was tested. Which “Time Length to Obtain Mutants” value [1] did it give?
Its value is “LONG (> 125 days)”.

And the “# of Resistant Strains Generated” value [1]?
Its value is 0/3.

What about the “EC50 fold shifts observed” value [1] of the same compound?
The value was “no shift”.

And the EC50 [2]?
Its EC50 is 0.251 µM.

And the EC50 [3]?
Its EC50 is 0.352 µM.

And the EC50 [4]?
The EC50 was 0.364 µM.

What about the EC50 (PfCRT-Q352R (parent Dd2)) of the same compound?
Its EC50 is 0.315 µM.

And the EC50 (Dd2; [5])?
Its EC50 is 0.374 µM.

And the EC50 (Dd2; [6])?
Its EC50 is 0.255 µM.

Which results are given for `COc1ccc(N2CCN(C(CNC(=O)C3CCCCC3)c3ccc4c(c3)OCO4)CC2)cc1` (stereo not drawn) [MMV019662]?
Time Length to Obtain Mutants [1]: MODERATE (50-125 days); # of Resistant Strains Generated [1]: 3/3; EC50 fold shifts observed [1]: 15x; EC50 [2]: 0.596 µM; EC50 [3]: 0.448 µM; EC50 [4]: 0.405 µM; EC50 (PfCRT-Q352R (parent Dd2)): 0.356 µM; EC50 (Dd2; [5]): 0.357 µM; EC50 (Dd2; [6]): 0.242 µM

`Cc1nc2ccc3ccc(CNc4ccc(C(=O)CC(CCC(=O)O)C(=O)O)cc4)cc3c2c(=O)[nH]1.Cl` (stereo not drawn) [MMV027634] was tested. Which “Time Length to Obtain Mutants” value [1] did it give?
Its value is “SHORT (0-50 days)”.

And the “# of Resistant Strains Generated” value [1]?
Its value is 3/3.

And the “EC50 fold shifts observed” value [1]?
Its value is >15x.

What about the EC50 [2] of the same compound?
Its EC50 is 0.13 µM.

What about the EC50 [3] of the same compound?
Its EC50 is 0.042 µM.

And the EC50 [4]?
The EC50 was 0.229 µM.

And the EC50 (PfCRT-Q352R (parent Dd2))?
Its EC50 is 0.038 µM.

And the EC50 (Dd2; [5])?
Its EC50 is 0.035 µM.

And the EC50 (Dd2; [6])?
The EC50 was 0.124 µM.

How did the “Time Length to Obtain Mutants” value [1] turn out when `CCCCCCCN(Cc1ccc(OC(C)(C)C(=O)OCC)cc1)C(=O)Nc1ccc(Cl)cc1OCC` [MMV021735] was run?
The value was “LONG (> 125 days)”.

And the “# of Resistant Strains Generated” value [1]?
Its value is 0/3.

What about the “EC50 fold shifts observed” value [1] of the same compound?
Its value is “no shift”.

What about the EC50 [2] of the same compound?
The EC50 was 0.062 µM.

And the EC50 [3]?
The EC50 was 0.223 µM.

What about the EC50 [4] of the same compound?
The EC50 was 1.08 µM.

And the EC50 (PfCRT-Q352R (parent Dd2))?
Its EC50 is 0.259 µM.

And the EC50 (Dd2; [5])?
The EC50 was 0.258 µM.

What about the EC50 (Dd2; [6]) of the same compound?
The EC50 was 1.29 µM.
